Experiment [1] can be described thus: Luminescence Cell-Based Dose Retest to Confirm Inhibitors of Cancer Stem Cells. [Related pubchem assays (depositor defined):AID2717, AID2721]. It counts as functional. The following applies: Homo sapiens.
Experiment [2] in a line: inhibitors of firefly luciferase expression or activity, dose response, H4 neuroglioma cells, luminescence (AID 1990). It counts as functional, cell-based.
The nature of experiment [3]: Luminescence Cell-Based Dose Response HTS to Identify Inhibitors of 5'UTR Stem-Loop Driven Prion Protein mRNA Translation in H4 Neuroglioblastoma Cells. [Related pubchem assays: 1827 (Project Summary), 1813 (Primary HTS)]. The class given is functional.
Experiment [4] can be described thus: inhibitors of SNCA 5'UTR-driven reporter translation, confirmation, H4 neuroglioma cells, luminescence (AID 1988). The class given is functional, cell-based.
The nature of experiment [5]: HEp-2 cell cytotoxicity, dose response, cytotoxicity control for RSV inhibitor project, HTS (AID 2410). The following applies: human respiratory syncytial virus. It counts as functional.
For another experiment, the system named is H4. The experiment can be described thus: Luminescence Cell-Based Dose Response HTS to Identify Activators of 5'UTR Stem-Loop Driven Prion Protein mRNA Translation in H4 Neuroglioblastoma Cells. [Related pubchem assays: 1829 (Project Summary), 1814 (Primary HTS)]. The class given is functional. The following applies: Homo sapiens.
Experiment [6] in a line: Luminescence Cell-Based Dose Response HTS to Identify Activators of Luciferase Translation or Activity in H4 […] Cells. [Related pubchem assays: 1829 (Project Summary), 1814 (Primary HTS)]. The class given is functional.
The nature of experiment [7]: Luminescence Cell-Based Dose Confirmation HTS to Identify Activators of 5'UTR Stem-Loop Driven Alpha-Synuclein mRNA Translation in H4 Neuroglioblastoma Cells. [Related pubchem assays: 1829 (Project Summary), 1814 (Primary HTS)]. It counts as functional.
In the next experiment the target is T1, Protein skinhead-1 (Caenorhabditis elegans, UniProt P34707).
T1 sequence (P34707 whole entry): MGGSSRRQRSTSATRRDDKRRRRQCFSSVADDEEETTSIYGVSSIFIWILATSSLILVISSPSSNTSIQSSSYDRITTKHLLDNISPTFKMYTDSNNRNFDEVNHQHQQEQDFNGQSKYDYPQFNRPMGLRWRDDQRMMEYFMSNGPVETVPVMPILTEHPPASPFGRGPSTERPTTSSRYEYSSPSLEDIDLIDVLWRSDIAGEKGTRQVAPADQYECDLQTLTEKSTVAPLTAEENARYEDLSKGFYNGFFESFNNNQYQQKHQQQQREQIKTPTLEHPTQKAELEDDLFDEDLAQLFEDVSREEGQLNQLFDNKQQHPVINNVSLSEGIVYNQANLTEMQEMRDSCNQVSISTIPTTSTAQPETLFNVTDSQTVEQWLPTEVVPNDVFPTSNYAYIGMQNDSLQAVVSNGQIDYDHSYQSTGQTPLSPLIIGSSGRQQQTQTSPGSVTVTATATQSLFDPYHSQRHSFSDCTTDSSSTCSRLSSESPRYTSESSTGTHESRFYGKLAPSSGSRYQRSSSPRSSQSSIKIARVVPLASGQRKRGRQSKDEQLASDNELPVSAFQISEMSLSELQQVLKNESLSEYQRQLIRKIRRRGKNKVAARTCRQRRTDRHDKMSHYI
It counts as functional.

In a further experiment the test system is INS1. The experiment can be described thus: beta cell apoptosis inhibitors, cytokine rescue, dose response, luminescence, retest (AID 449756).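 Further: cell death triggered by IL-1 beta plus TNF-alpha plus IFN-gamma mixture; protective hits raise ATP signal compared with cytokine alone wells.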 The class given is functional, cell-based. Particulars: Rattus norvegicus.
Experiment [8] is described as follows: cytotoxicity toward NIH3T3 fibroblasts, dose response, counter-screen, cell-based, ATP luminescence, mouse fibroblasts (AID 2010).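 Further: cells exposed to compound for about 90 hours before reading.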 It counts as functional. A general note: The purpose of a counterscreen is to sort out artefacts and off-target activity.
Experiment [9] can be described thus: inhibitors of intracellular T. cruzi replication, confirmation, NIH3T3 host cells, beta-gal luminescence (AID 2044).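 Further: intracellular parasites grown in NIH/3T3 mouse fibroblasts as host cells; luminescent beta-galactosidase reporter signal from transgenic T. cruzi replicating inside host cells; inhibitors lower the luminescence signal.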 The class given is functional, cell-based.
A further experiment relates to Streptococcus. Description: Group A Streptococcus viability loss, dose response, counter-screen for streptokinase expression inhibitor project, luminescence, BacTiterGlo (AID 1915).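 Further: potency for reduction of bacterial viability or growth.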 The class given is functional, organism-based.
Experiment [10] deals with Streptococcus sp. 'group A'. Description: growth inhibition of control SK(-) GAS strain, dose response, counter-screen for streptokinase expression inhibitor project, luminescence, kanamycin, BacTiterGlo, confirmation (AID 1900). The class given is functional, organism-based.
The target in a further experiment is T2, Streptokinase A (Streptococcus pyogenes serotype M1, UniProt P10520).
T2 sequence (P10520 whole entry): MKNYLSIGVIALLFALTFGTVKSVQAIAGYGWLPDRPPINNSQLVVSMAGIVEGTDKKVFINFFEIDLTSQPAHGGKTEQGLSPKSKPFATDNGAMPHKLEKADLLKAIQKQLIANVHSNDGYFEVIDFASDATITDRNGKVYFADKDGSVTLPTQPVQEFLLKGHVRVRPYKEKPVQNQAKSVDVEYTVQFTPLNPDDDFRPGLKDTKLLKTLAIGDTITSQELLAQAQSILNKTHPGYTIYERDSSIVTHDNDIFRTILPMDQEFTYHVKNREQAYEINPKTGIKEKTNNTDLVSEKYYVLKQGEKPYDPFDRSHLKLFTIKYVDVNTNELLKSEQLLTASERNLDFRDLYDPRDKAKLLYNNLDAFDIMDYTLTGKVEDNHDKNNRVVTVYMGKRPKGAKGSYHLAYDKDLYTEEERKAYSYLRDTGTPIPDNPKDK
The experiment can be described thus: S. pyogenes streptokinase expression inhibitors, potency, dose response, plasminogen activation absorbance, OD405 (AID 1914).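 Further: secreted streptokinase activity via plasminogen activation per viability signal from cell pellet.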 It counts as functional, Streptococcus pyogenes M1 GAS.

The AC50 is the concentration at which the activity in the assay is half-maximal. What is called EC50 is the concentration needed to bring the measured effect to its halfway point. By CC50 is commonly meant the concentration giving 50% cytotoxicity. The term IC50 denotes the point on the concentration scale where inhibition reaches its midpoint.

The source made the active and inactive calls. For most assays here, no stated cut-off is given here; in the data, actives have a measured EC50 and inactives only a lower limit.

As for `O=Nc1c(O)n(Cc2ccc(Cl)cc2Cl)c2ccccc12`, the AC50 in experiment [1] is 6.86 µM (active). Still for that read-out and setting: with `COc1cccc(/C=C/c2nc(C#N)c(NCC(C)C)o2)c1` the figure was 2.19 µM (active).

Regarding `CCCn1c2ccccc2c2nnc(SCC(=O)Nc3c(C)n(C)n(-c4ccccc4)c3=O)nc21`, the EC50 in experiment [2], in experiment [3] and in experiment [4] was > 120 µM (not active) in each case. For the compound `O=C(Nc1ccc(Cl)c(Cl)c1)c1ccc2c(c1)OCO2`, in [5], the CC50 is > 50 µM (active). Consider `O=C1Nc2ccccc2/C1=C\c1cccn1-c1ccc(OC(F)(F)F)cc1`, for which the values for the EC50 in experiment [2], in [3] and in [4] were 15.7 µM (active), > 120 µM (not active) and 15.4 µM (active), respectively. Regarding `CC(=O)c1ccc(NC(=O)CCc2c(C)nc3ncnn3c2C)cc1`, the EC50 with H4 is 37.1 µM (active); in [6] it was 8.11 µM (active); in [7], 73.6 µM (active). In the case of `C=CCn1c(-c2ccccc2)ccc(C#N)c1=O`, at Protein skinhead-1, the half-inhibitory concentration (IC50) was 15.8 µM (active). As to `CCC(C)(C)C(=O)Nc1ncc(S(=O)(=O)c2ccc([N+](=O)[O-])cc2)s1`, the IC50 on Protein skinhead-1 is > 100 µM (inactive). Take `CC(C)(C)c1ccc(NC(=O)c2c(F)cccc2Cl)cc1`: the half-maximal cytotoxic concentration (CC50) in [5] was 43.5 µM (active).

`CCc1ccccc1N=C(S)N=C(N)Nc1nc(C)c2cc(C)ccc2n1`: the values for the 50% effective concentration (EC50) in [2], in experiment [3] and in [4] were > 120 µM (not active), > 120 µM (not active) and 29.4 µM (active), respectively.

Regarding `O=C(NNC(=O)c1ccccc1OCc1ccccc1)c1ccccc1O`, the concentration giving a half-maximal response (EC50) in experiment [2] is 3.92 µM (active); in [3], 11.6 µM (active); in experiment [4], 5.27 µM (active). In addition, the concentration at half-maximal activity (AC50) in the experiment on INS1 was 2.76 µM (active).

Take `c1ccc(-c2ccc(-n3ccnc3)cc2)cc1`: the IC50 on Protein skinhead-1 is 6.11 µM (active). The EC50 in experiment [8] and in experiment [9] was > 30 µM (not active) in each case.

With `CCOC(=O)C1=C(c2ccccc2)OC(N)=C(C#N)C1C(C)C` (configuration not stated), the 50% effective concentration (EC50) (with H4; in experiment [6]; in experiment [7]) was > 120 µM (not active) in each case.

Turning to `Cc1ccc(NC(=O)Cn2nnc3ccccc32)cc1`, the half-maximal effective concentration (EC50) with H4 was 111 µM (active); in experiment [6], > 120 µM (not active); in experiment [7], 17.5 µM (active).

With `COc1ccc(CC(=O)NCc2ccc3c(c2)cc(C)n3C)cc1`, the IC50 on Protein skinhead-1 was > 100 µM (inactive). `CCc1ccc2c(c1)c1nnc(NN)nc1n2C`: the EC50 in experiment [2], in [3] and in [4] was > 120 µM (not active) in each case.

With `CCOC(=O)c1c(C)n(C)c2ccc(OCC(O)Cn3nc(C)c(Br)c3C)cc12` (configuration not stated), the concentration giving a half-maximal response (EC50) with Streptococcus is 38.1 µM (active); in experiment [10] it was 15.6 µM (active); at Streptokinase A it was > 150 µM (not active). The CC50 in experiment [5] was 15.6 µM (active). Turning to `Fc1ccc(-c2nnc(Cc3ccc(Cl)cc3)o2)cc1`, the IC50 at Protein skinhead-1 is 20.2 µM (active).

As to `CCOc1ccc(C(=O)OCC(=O)c2c(N)n(C)c(=O)n(C)c2=O)cc1OCC`, the EC50 with H4 is 46.7 µM (inconclusive); in [6] it was > 120 µM (not active); in experiment [7] it was > 120 µM (not active). Consider `Clc1cc(Cl)c2nc(N3CCCC3)sc2c1`, for which, at Protein skinhead-1, the IC50 is 27.1 µM (active).

With `O=C(Nc1ccc(C(O)(C(F)(F)F)C(F)(F)F)cc1)c1ccc(Cl)c([N+](=O)[O-])c1`, the AC50 in [1] was 5.95 µM (active). Regarding `Clc1ccc(-c2nnc(SCc3ccon3)o2)c(Cl)c1`, the IC50 at Protein skinhead-1 was 60.2 µM (inactive). Take `CCN(CC)C(=O)c1sc(NC(=O)Cc2ccc(OC)cc2)c(C#N)c1C`: the IC50 on Protein skinhead-1 was > 100 µM (inactive).

As for `CC(=O)n1cc(-c2ccncc2)c2ccccc21`, in experiment [5], the CC50 is 31.5 µM (active).

Regarding `NC(=O)CC(NC(=O)Cc1cccc2ccccc12)c1ccc(NC2CC3CCC2C3)c([N+](=O)[O-])c1` (configuration not stated), the CC50 in experiment [5] was > 50 µM (active).

Regarding `O=C(C[C@H]1C[C@H](C(=O)N2CCOCC2)[C@@]2(CCC3CCCC3)c3[nH]c4cc(-c5ccco5)ccc4c3CCN2C1=O)NCc1ccco1`, on Protein skinhead-1, the IC50 is > 100 µM (inactive). For `COc1cc(/C=N/NC(=S)NC2CC3CC2C2C=CCC32)ccc1O` (configuration not stated), the EC50 in the experiment with H4 was > 120 µM (not active); in experiment [6] it was 69.7 µM (active); in [7] it was > 120 µM (not active). For the compound `O=C(NC1CCCC1)C1C(c2ccc(C(F)(F)F)cc2)=Nc2ccccc2N1C(=O)c1ccco1` (configuration not stated), on Protein skinhead-1, the IC50 was > 100 µM (inactive).

As for `Clc1ccc(-c2nc(CSc3ccccn3)cs2)cc1`, the IC50 at Protein skinhead-1 is 59.1 µM (inactive). In the case of `Oc1nc(N/N=C/c2ccccc2Br)nnc1-c1ccccc1`, the CC50 in [5] is 30.9 µM (active). On the same count and under the same terms, with `COc1ccc(O)c(/C=N/Nc2nc(C)cc(-c3ccccc3)n2)c1` the figure was 18.1 µM (active); with `COc1ccccc1-c1cc(C(=O)N/N=C/c2ccc(C)s2)c2ccccc2n1`, 32.2 µM (active). `Cc1nn(-c2ccccc2)c(C)c1/C=N/n1c(S)nnc1-c1ccc(C(C)(C)C)cc1`: the EC50 in the experiment with Streptococcus was 5.35 µM (active); in [10] it was 3.13 µM (active); on Streptokinase A it was > 150 µM (not active). Besides, the concentration at half-maximal activity (AC50) in experiment [1] was 5.78 µM (active).
